Assay results published in patent US20240016777A1, “COMPOUNDS AND METHODS FOR TREATING VIRAL INFECTIONS” (priority 2020, published 2024).

Target: SARS-CoV-2 M^pro (Severe acute respiratory syndrome coronavirus 2 (2019-nCoV) (SARS-CoV-2), UniProt P0DTD1)
Experiment: biochemical
Settings: not given

Row | SMILES | Mpro inhibitory activity (comparison in words)
1 | O=C1CC(c2ccccc2)Oc2cc(O)cc(O)c21 (stereo not shown) [Pinocembrin] | relatively poor inhibition
2 | COc1cc(O)c2c(=O)cc(-c3ccc(OC)c(-c4c(O)cc(O)c5c(=O)cc(-c6ccc(O)cc6)oc45)c3)oc2c1 [Ginkgetin] | comparable to amentoflavone

Same assay, conditions: compound at 17 μM, duplicates, 20 min pre-incubation; read-out: Activity (% enzyme activity by fluorescence relative to initial enzyme activity)

Row | SMILES | remaining activity at 17 µM [%]
3 | O=c1c(O)c(-c2ccc(O)cc2O)oc2cc(O)cc(O)c12 [morin] | > 80
4 | O=c1c(-c2ccc(O)cc2)coc2cc(O)cc(O)c12 [Genistein] | > 80
5 | O=c1c(O)c(-c2ccc(O)cc2)oc2cc(O)cc(O)c12 [Kaempferol] | > 80
6 | CC(C)=CCc1c(-c2ccc(O)cc2O)oc2c3c(cc(O)c2c1=O)OC(C)(C)C=C3 [Morusin] | 10 to 80
7 | C=C(C)[C@H](CC=C(C)C)Cc1c(O)cc(O)c2c(=O)c(O)c(-c3ccc(O)cc3O)oc12 [Kushenol C] | 10 to 80

Same assay, conditions: read-out: Activity (% enzyme activity by fluorescence relative to initial enzyme activity), compound at 17 μM, duplicates, 20 min pre-incubation

Row | SMILES | remaining activity at 17 µM [%]
8 | CC(C)=CCCC1(C)CCc2c(cc(O)c3c2OC(c2ccc(O)cc2O)CC3=O)O1 (stereo not shown) [Sanggenol L] | > 80
9 | O=C1CC(c2ccc(O)cc2O)Oc2cc(O)cc(O)c21 (stereo not shown) [Steppogenin] | > 80
10 | COc1cc2oc(-c3ccc(O)cc3O)c(CC=C(C)C)c(=O)c2c(O)c1/C=C/C(C)C [Artocarpin] | > 80
11 | C=C(C)[C@H](CC=C(C)C)Cc1c(O)cc(OC)c2c1O[C@H](c1ccc(O)cc1O)CC2=O [Kurarinone] | > 80
12 | CC(C)=CCc1c(O)cc(O)c2c1OC(c1cc3c(cc1O)O[C@@H](c1ccc(O)cc1)[C@@H]3c1cc(O)cc(O)c1)CC2=O (stereo partly shown) [Sophoraflavanone H] | > 80
13 | CC(C)=CCC/C(C)=C/Cc1c(O)c(CC=C(C)C)cc(C2CC(=O)c3c(O)cc(O)cc3O2)c1O (stereo not shown) [Sanggenol P] | > 80
14 | CC(C)=CCc1c(O)ccc([C@H]2COc3c(CC=C(C)C)c(O)cc(O)c3C2=O)c1O (stereo in doubt) [5,7,2′,4′-Tetrahydroxy-8,3′-di(gamma,gamma-dimethylallyl)-isoflavanone] | 10 to 80
15 | C=C(C)[C@H](CC=C(C)C)Cc1c(O)cc(O)c2c1O[C@H](c1ccccc1O)CC2=O [Kushenol A] | > 80
16 | COc1cc(O)c(CC=C(C)C)c2oc(-c3ccc(O)cc3)c(O)c(=O)c12 [Sophoflavescenol] | > 80
17 | COc1ccc(-c2oc3c(CC=C(C)C)c(O)cc(O)c3c(=O)c2O[C@@H]2O[C@@H](C)[C@H](O)[C@@H](O)[C@H]2O[C@@H]2O[C@@H](C)[C@H](O)[C@@H](O)[C@H]2O)cc1 [2″-O-Rhamnosylicariside II] | 10 to 80
18 | CC(C)=CCc1c(O)c(CC=C(C)C)c2oc3c(c(=O)c2c1O)C(C=C(C)C)Oc1cc(O)c(O)cc1-3 (stereo not shown) [Artoheterophyllin B] | > 80
19 | CC(C)=CCc1cc([C@H]2Oc3cc(O)cc(O)c3C(=O)[C@@H]2O)c(O)c(CC=C(C)C)c1O [cathayanon I] | 10 to 80
20 | CC(C)=CCc1c(O)cc(O)c2c(=O)c(-c3ccc(O)cc3O)coc12 [2,3-dehydrokievitone] | 10 to 80
21 | COc1c(-c2ccc(O)c(O)c2)oc2c(CC=C(C)C)c(O)c(CC=C(C)C)c(O)c2c1=O [broussoflavonol B] | > 80
22 | COc1cc2c(cc1CC=C(C)C)C(=O)C[C@@H](c1ccc(O)cc1)O2 [Bavachinin] | > 80
23 | CC(C)=CCc1c(O)c(CC=C(C)C)c2occ(-c3ccc(O)cc3)c(=O)c2c1O [6,8-Diprenylgenistein] | 10 to 80
24 | CC(C)=CCc1c(O)ccc2c1O[C@H](c1ccc(O)cc1)CC2=O [Isobavachin] | > 80
25 | CC(C)=CCc1c(O)c(C)c(O)c2c1O[C@H](c1ccc(O)cc1)CC2=O [6-Methyl-8-prenylnaringenin] | < 10
26 | C=C(C)[C@H](CC=C(C)C)Cc1c(O)c(CC=C(C)C)c(O)c2c1O[C@H](c1ccc(O)cc1O)CC2=O [Kushenol B] | > 80
27 | CC(C)=CCc1c(O)cc2occ(-c3ccc(O)cc3O)c(=O)c2c1O [Luteone] | > 80

Row | SMILES | remaining activity at 17 µM [%]
28 | CC(C)=CCc1c(O)c(CC=C(C)C)c2occ(-c3ccc(O)c(O)c3)c(=O)c2c1O [6,8-Diprenylorobol] | > 80
29 | COc1c(CC=C(C)C)c(O)cc2c1C[C@H](c1ccc(O)c(CC=C(C)C)c1O)CO2 [Licoricidin] | > 80
30 | CC(C)=CCc1c(O)cc(O)c2c(=O)c3c(oc12)-c1ccc(O)cc1OC3C=C(C)C (stereo not shown) [Cyclomulberrin] | 10 to 80
31 | CC(C)=CCC/C(C)=C/Cc1cc(-c2cc(=O)c3c(O)cc(O)cc3o2)c(O)cc1O [5′-Geranyl-5,7,2′,4′-tetrahydroxyflavone] | > 80
32 | COc1cc(O)c(CC=C(C)C)c2c1C(=O)[C@H](O)[C@@H](c1ccc(O)cc1)O2 (stereo in doubt) [3,7,4′-Trihydroxy-5-methoxy-8-prenylflavanone] | > 80
33 | CC(C)=CC1Oc2cc(O)ccc2-c2oc3cc(O)cc(O)c3c(=O)c21 (stereo not shown) [Cyclocommunol] | > 80
34 | CC(C)=CCc1c(O)cc(O)c2c1O[C@H](c1ccc(O)cc1O)CC2=O [Leachianone G] | > 80
35 | COc1ccc(-c2oc3c(CC=C(C)C)c(O[C@@H]4O[C@H](CO)[C@@H](O)[C@H](O)[C@H]4O)cc(O)c3c(=O)c2O[C@@H]2O[C@@H](C)[C@H](OC(C)=O)[C@@H](O)[C@H]2O[C@@H]2O[C@H](CO)[C@@H](O)[C@H](OC(C)=O)[C@H]2O)cc1 [Caohuoside E] | > 80
36 | COc1c(-c2cc(O)c(O)c(CC=C(C)C)c2)oc2c(CC=C(C)C)c(O)cc(O)c2c1=O [5,7,3′,4′-Tetrahydroxy-3-methoxy-8,5′-diprenylflavone] | > 80
37 | CC(C)=CCc1c2c(c(O)c3c(=O)c4c(oc13)-c1cc(O)c(O)cc1OC4C=C(C)C)C=CC(C)(C)O2 (stereo not shown) [Cycloheterophyllin] | > 80
38 | COc1c(-c2cc(CC=C(C)C)c(O)c(CCC(C)CO)c2)oc2cc(O)cc(O)c2c1=O (stereo not shown) [Dodoviscin H] | > 80
39 | CC(C)=CCc1cc(-c2oc3cc(O)cc(O)c3c(=O)c2O)cc(O)c1O [Uralenol] | > 80
40 | CC(C)=CCc1c(O)cc2c(c1O)C(=O)C[C@@H](c1ccc(O)cc1O)O2 [Cudraflavanone B] | > 80
41 | COc1ccc(-c2oc3c(CC=C(C)C)c(O[C@@H]4O[C@H](CO)[C@@H](O)[C@H](O)[C@H]4O)cc(O)c3c(=O)c2O[C@@H]2O[C@@H](C)[C@H](O)[C@@H](O)[C@H]2O[C@@H]2O[C@@H](C)[C@H](O)[C@@H](O)[C@H]2O)cc1 [Epimedin C] | 10 to 80
42 | COc1c(-c2cc(O)c(O)c(CC=C(C)C)c2)oc2cc(O)cc(O)c2c1=O [Uralenol-3-methylether] | > 80
43 | C=C(C)[C@H](CC=C(C)C)Cc1c(O)cc(OC)c2c1O[C@H](c1ccc(O)cc1O)[C@@H](O)C2=O [Kushenol I] | > 80
44 | CC(C)=CCc1c(O)cc2oc(-c3ccc(O)cc3O)cc(=O)c2c1O [Artocarpesin] | > 80
45 | CC(C)=CCc1c(O)cc2c(c1O)C(=O)[C@H](O)[C@@H](c1ccc(O)cc1)O2 [Shuterin] | > 80
46 | COc1ccc(-c2oc3c(CC=C(C)C)c(O[C@@H]4O[C@H](CO)[C@@H](O)[C@H](O)[C@H]4O)cc(O)c3c(=O)c2O)cc1 [Icariside I] | > 80
